This is an account of results in patent US9381208B2, “Structure and use of 5′ phosphate oligonucleotides” (Rheinische Friedrich-Wilhelms-Universität, priority 2006, dated 2016).

{ppp} = triphosphate group; {Biotin} = biotin label U

One series concerns Caspase-1. Put plainly: Caspase-1 activation in B16 cells (western blot). Type of series: cell-based, murine. The settings on record: 24 hours. The method, then: (e) B16 cells were incubated with control siRNA, 3p-2.2 and poly(I:C) for 24 hours and assessed for caspase-1 activity via immunoblotting. α-Tublin served as loading control. One representative experiment of three is shown.
(§1) For Western blotting, samples were separated by SDS-PAGE and transferred to a nitrocellulose membrane (Amersham-Biosciences, UK) by semi-dry electroblotting. As primary antibody polyclonal rat anti-RIG-I (kind gift of Dr. Kremer), polyclonal rabbit anti-Bcl-2 (Santa Cruz, sc-7382) and rabbit anti-caspase-1 (Santa Cruz, sc-7148) antibody were used. As secondary antibody, peroxidase-conjugated anti-mouse or anti-rabbit antibody (Amersham-Biosciences) were used. Bound antibodies were visualized by enhanced chemiluminescence system (ECL) according to the manufacturer's protocol (Amersham-Biosciences).
(Immunoblotting shows a protein as a band on a membrane.)

Series [1] deals with T1, RIG-I (Homo sapiens, UniProt O95786).
T1 sequence (O95786 1-925): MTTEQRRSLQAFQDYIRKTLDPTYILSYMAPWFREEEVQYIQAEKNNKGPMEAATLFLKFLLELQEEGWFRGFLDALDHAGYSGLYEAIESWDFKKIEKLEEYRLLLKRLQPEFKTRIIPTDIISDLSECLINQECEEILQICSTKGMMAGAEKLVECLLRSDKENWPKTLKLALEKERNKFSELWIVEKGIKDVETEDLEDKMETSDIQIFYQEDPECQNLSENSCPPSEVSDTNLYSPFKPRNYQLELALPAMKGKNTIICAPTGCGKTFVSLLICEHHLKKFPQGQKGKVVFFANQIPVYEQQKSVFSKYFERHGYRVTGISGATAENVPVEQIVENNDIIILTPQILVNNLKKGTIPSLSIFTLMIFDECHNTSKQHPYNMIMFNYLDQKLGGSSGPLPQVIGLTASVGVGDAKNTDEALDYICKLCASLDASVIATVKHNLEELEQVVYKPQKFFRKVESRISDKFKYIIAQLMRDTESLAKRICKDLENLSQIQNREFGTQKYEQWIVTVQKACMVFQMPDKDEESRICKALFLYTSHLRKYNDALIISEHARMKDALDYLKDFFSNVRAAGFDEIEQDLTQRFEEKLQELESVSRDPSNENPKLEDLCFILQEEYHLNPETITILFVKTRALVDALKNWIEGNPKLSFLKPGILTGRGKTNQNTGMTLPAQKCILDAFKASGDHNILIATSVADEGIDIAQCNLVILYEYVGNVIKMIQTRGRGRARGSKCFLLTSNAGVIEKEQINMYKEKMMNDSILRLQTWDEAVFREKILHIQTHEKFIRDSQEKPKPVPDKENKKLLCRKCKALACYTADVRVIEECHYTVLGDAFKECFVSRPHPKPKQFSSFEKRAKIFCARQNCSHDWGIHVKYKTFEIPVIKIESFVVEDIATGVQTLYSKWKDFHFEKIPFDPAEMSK
Nature of the series: pIFN-beta-Luc reporter assay in HEK 293 cells transfected with RIG-I. The series is classed as cell-based. Also noted: Only HEK 293 cells expressing full length RIG-I responded to 5′triphosphate RNA; FLAG; expressed in transfected cells; host or cells: HEK 293. The settings on record: HEK 293 cells expressing full length RIG-I, 200 ng, 24 hours. Background: A reporter such as luciferase makes a cellular process visible.

The nature of series [2]: Blood cell counts (leucocytes, platelets) after injection. Type of series: in vivo, C57BL/6 mice. The settings on record: 50 μg, 48 hours. The method, then: (b & c) C57BL/6 mice were injected with 50 μg 3p-2.2 complexed with jetPEI™. Blood was collected after 48 h and processed as EDTA […] for measurement of leucocytes (WBC) and platelets. Blood cell counts were performed at the Central Laboratory of the Department of Internal Medicine, University of Munich at the indicated time point (P**<0.01 between the platelet count of 3p-2.2 and CpG). Data are shown as means±SEM of 2 independent experiments.

Series [3] has as its system B16 melanoma lung metastases. Nature of the series: B16 melanoma lung metastases model. The series is classed as in vivo. The settings on record: C57BL/6 mice, 50 μg complexed with jetPEI intravenously on day 3, 6 and 9, day 14, compared with PolyA. As to the method: (a) Therapeutic regimen: Mice were challenged with 4×10^5 B16 melanoma cells intravenously to experimentally induce lung metastases on day 0. Mice were treated intravenously with the indicated nucleic acid complexed to jetPEI™ on day 3, 6 and 9 as indicated. 14 days after challenge, the number of macroscopically visible melanoma metastases on the surface of the lungs was counted with the help of a dissecting microscope or the lung weight was calculated.
(b) Groups of five C57BL/6 mice were challenged with 4×10^5 B16 and treated as described. Mice were treated intravenously on day 3, 6 and 9 with 50 μg of OH-2.2, 50 μg 3p-2.2, 50 μg 3p-GC (a nonspecific double-stranded 3p-RNA) or 50 μg CpG oligonucleotide ligand, each complexed with jetPEI™. Control groups received 100 μl of Glucose 5% or 50 μg of PolyA complexed with jetPEI™. Tumor growth was assessed after 14 days by measuring the weight of the lungs. Shown are lung weights of five individual mice. The mean lung weight is indicated by a column. […]
For the induction of lung metastases we injected 4×10^5 B16 melanoma cells into the tail vein of the indicated mice. […] 14 days after challenge the number of macroscopically visible melanoma metastases on the surface of the lungs was counted with the help of a dissecting microscope or, in case of massive tumor load, lung weight was determined. […]

The target of series [4] is T1, RIG-I. Put plainly: Ligand binding studies: pull-down of RIG-I by biotinylated RNA. Also noted: HEK 293 cells were transiently transfected with full length RIG-I, RIG-I CARD2 or RIG-I ΔHELIc; expressed in transfected cells; host or cells: HEK 293 (whole cell lysate). The settings on record: whole cell lysate of HEK 293 cells overexpressing full length RIG-I. As to the method: (§2) Cell lysates were prepared according to Meister et al. (G. Meister et al., Mol Cell 15, 185 (Jul. 23, 2004)) with minor modifications. HEK 293 cells were transfected using high molecular weight (25 kDa) polyethylenimine (PEI; Sigma, 40.872-7). At a confluency of 80-90%, cells were transfected with a PEI:DNA ratio of 1.5:1. 24-36 hours after transfection cells were harvested and the cell pellet was resuspended in five pellet volumes of 10 mM KCl, 1.5 mM MgCl2, 0.5 mM dithiothreitol, 10 mM HEPES-NaOH (pH 7.9), 0.5 mM PMSF and incubated for ten minutes on ice. Subsequently cells were washed and the cell pellet was resuspended in two pellet volumes of the buffer described above and homogenized by douncing. The cell nuclei were removed from the cell lysate by centrifugation at 2.000 g for ten minutes. The supernatant was transferred into microcentrifuge tubes and cleared further by centrifugation at 2.000 g for ten minutes and further centrifugation for 30 minutes at 20.000 g to obtain the cytoplasmic extract. The concentration of KCl of the extract was subsequently raised to 100 mM by addition of 2 M KCl and glycerol was added to a percentage of 10%. For purification of FLAG-tagged RIG-IC complexes, cytoplasmic extracts were incubated in FLAG M2 agarose beads (Sigma). FLAG M2 agarose beads were washed once with 0.1 M glycine (pH 3.5) and equilibrated by washing with 1 M Tris-HCl (pH 8.0). […]

Series [5] concerns RIG-I. Described as above. The settings on record: CARD2 and RIG-I Δ Helicase_C. As to the method:
as §2

For series [6], the system named is RIG-I. Nature of the series: Expression of endogenous RIG-I in B16 cells (western blot). Type of series: cell-based, murine. Conditions: 6 hours. The method, then:
(b) To determine the endogenous expression of RIG-I, B16 cells were stimulated with 3p-2.2 (1.2 μg/well) and murine IFN-β (1000 U/ml). After 6 hours cells were lysed and analyzed for endogenous expression of RIG-I by Western Blot. HEK293 cells overexpressing full-length RIG-I served as positive control. One representative experiment of two is shown.
as §1

Consider “Polyinosinic:polycytidylic acid [poly(I:C)]”, for which the “cleavage of procaspase-1” value in the series with Caspase-1 is reported as “increased cleavage of procaspase-1 to active subunit p10”. In addition, the “IFN-β promoter reporter expression” value on RIG-I [1] is recorded as “did not respond”.

On to 5′-TCCATGACGTTCCTGACGTT-3′ [CpG 1826], for which, in series [2], the thrombocytopenia entry is reported as “more apparent”. The lung metastases result in series [3] is given as “significant reduction of lung metastases, but to a lesser extent than 3p-2.2”.

For “tri-G-AC-U-Bio: biotinylated 5′ triphosphate oligonucleotide, SEQ ID NO: 349, 3′ terminal biotinylated U (GGGAGACAGGCACCACACACACACACACUUU; RNA, 5' {ppp}, 3' {Biotin}, backbone not given here; biotin attached to the 3'-terminal U)”, the “pull-down of full length RIG-I” value with RIG-I [4] is “able to immunoprecipitate full length RIG-I”. For the same molecule, in the series on RIG-I [5], the “pull-down of truncated versions of RIG-I” value is recorded as “not very effective at pulling down”.

B1: IFN-β: Recombinant murine IFNβ (protein, UniProt P01575 22-182, looked up)
Interferon beta: INYKQLQLQERTNIRKCQELLEQLNGKINLTYRADFKIPMEMTEKMQKSYTAFAIQEMLQNVFLVFRNNFSSTGWNETIVVRLLDELHQQTVFLKTVLEEKQEERLTWEMSSTALHLKSYYWRVQRYLKLMKYNSYAWMVVRAEIFRNFLIIRRLTRNFQN
Regarding B1, in the series with RIG-I [6], the RIG-I-expression entry was “strongly upregulated”.
